Earlier results as cited in patent US7517991B2, “N-sulfonylpiperidine cannabinoid receptor 1 antagonists” (Bristol-Myers Squibb Company, priority 2004, dated 2009).
Like-named read-outs stand apart in the source and are kept apart here.

Key:
[1] = chronic administration for two weeks
[2] = human subjects, 16 week trial period, Phase IIb

| Compound | body weight [1] | body weight [2] |
| --- | --- | --- |
| Cc1c(C(=O)NN2CCCCC2)nn(-c2ccc(Cl)cc2Cl)c1-c1ccc(I)cc1 [AM-251] | substantial body weight reduction | – |
| Cc1c(C(=O)NN2CCCCC2)nn(-c2ccc(Cl)cc2Cl)c1-c1ccc(Cl)cc1 [SR-141716] | – | dose-dependently reduced body weight |
